Laboratory results published in patent US20250281649A1, “PROBE DIRECTED TO ENZYME ALDH1A3 AND USE THEREOF IN THE DIAGNOSIS OF GLIOBLASTOMA” (Universita' Degli Studi Del Piemonte Orientale "A. Avogadro", priority 2021, published 2025).

How the values were obtained:
ALDH1A3 = molecular target: T1, ALDH1A3 (Homo sapiens, UniProt P47895); assay: Ki evaluation, competitive inhibition vs acetaldehyde, NADH formation; format: biochemical; settings: competitive vs acetaldehyde 1-20 mM
T1 construct: His-tag; made in house; host or cells: bacterial cells
T1 sequence (P47895 1-512): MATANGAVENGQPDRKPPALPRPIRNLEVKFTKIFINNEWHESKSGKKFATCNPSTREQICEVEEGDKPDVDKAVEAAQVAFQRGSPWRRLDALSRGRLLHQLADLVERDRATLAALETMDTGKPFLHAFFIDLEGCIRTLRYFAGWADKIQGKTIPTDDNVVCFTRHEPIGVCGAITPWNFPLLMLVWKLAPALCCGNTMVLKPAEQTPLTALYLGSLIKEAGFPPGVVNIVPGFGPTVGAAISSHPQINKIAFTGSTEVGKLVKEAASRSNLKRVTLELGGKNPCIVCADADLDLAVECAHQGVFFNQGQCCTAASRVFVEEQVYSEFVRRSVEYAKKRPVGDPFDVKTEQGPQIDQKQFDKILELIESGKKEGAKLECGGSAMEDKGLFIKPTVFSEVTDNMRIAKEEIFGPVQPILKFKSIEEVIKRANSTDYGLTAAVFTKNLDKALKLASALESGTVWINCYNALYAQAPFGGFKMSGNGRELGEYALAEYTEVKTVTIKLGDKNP
Description: A common protocol to express and purify all three members of the ALDHIA subfamily has been optimized. Briefly, induced cells, collected by centrifugation, were re-suspended in an appropriate volume of lysis buffer (50 mM Na2HPO4, 300 mM NaCl, 1 mM β-mercaptoethanol, 20 mM imidazole, pH 7.5) added of benzonase nuclease (250 U/μL) and Protease inhibitor cocktail from SIGMA. After ultracentrifugation, the clarified sample was purified by a His-tag affinity chromatography followed by size-exclusion chromatography, using an AKTA FPLC system, at 4° C. To evaluate the purity and homogeneity of the protein, after each purification step, eluted d fractions were analyzed by SDS-PAGE and the protein quantification was always determined by Bradford protein assay.
Ki evaluation: on a Tecan—SUNRISE, probe 13 was tested as a possible competitive inhibitor, at a variable concentration (200, 100, 50, 10, 1 and 0 μM). In the same plate, different the acetaldehyde was tested at concentrations (1, 2.5, 5, 10, 15 and 20 mM) to describe the competitive mechanism. The recipe of the buffer reaction was the same as described before. The analysis was conducted measuring the NADH formation, that has a specific absorbance wavelength (340 nm). The test was performed in triplicate only with the ALDH1A3.

GL261 cells = assay: Penetration into GL261 cells in vitro; format: cell-based, mouse
From the text: We used in vitro and in vivo cells from a mouse high grade glioma cell line, GL261, Briefly, twenty-four 2- to 3-month-old female C57BIC mice were stereotactically implanted under deep general anesthesia (isoflurane supplemented with nitrous oxide) with 1×10^5 GL261 glioblastoma cells. The cells were stereotactically inoculated through a burr hole by a Hamilton syringe into the left striatum (coordinates: 1 mm anteroposterior and 1 mm lateral from bregma, at a depth of 3 mm). All experimental procedures were conducted in accordance with the European Communities Council Directive of 24 Nov. 1986 (86/609 EEC), Recommendation 18/06/2007, Dir. 2010/63/UE, and the Italian law for care and use of experimental animals (DL116/92) and were approved by the Italian Ministry of Health (prot. E669C.15) and the Bioethical Committee of the University of Turin. All animals were housed under a 12-hour light-dark cycle in an environmentally controlled room. All experiments were designed to minimize the numbers of animals used and their discomfort. In each experiment, animals with tumors were allocated to two groups and i.p. injected with probe 14 or probe 13. All drugs were administered intraperitoneally, and treatments were started days 6 after tumor implantation. […] Quantitative and phenotypic evaluations were made on images acquired with a Leica TCS SP5 confocal microscope.

Compound	Ki (ALDH1A3)	penetration into cells in vitro (GL261 cells)
COc1cc(/C=C/C(=O)/C=C(O)/C=C/c2ccc(OCc3cn(CCOc4ccc(C=O)cc4)nn3)c(OC)c2)ccc1O [Compound 13]	900 nM	–
CCOC(=O)Cn1cc(COc2ccc(/C=C/C(O)=C/C(=O)/C=C/c3ccc(O)c(OC)c3)cc2OC)nn1 [Compound 14]	–	penetrates GL261 cells in vitro
